The conditions of series [1]: background art; cited from earlier work.
In series [2] the test system is P388 murine leukemia cell line. Kind of series: In vivo antineoplastic test, P388 leukemia in mice. Further details: species or system murine (male and female CD2Fl mice). How it is done:
(§1) Compounds of the present invention are tested for antineoplastic activity by the following in vitro L1210 and in vivo P388 leukemia protocols:
In Vivo Antineoplastic Test Protocol
The activities of compounds of the present invention are tested against the P388 murine leukemia cell line in vivo. This protocol tests the effectiveness of a given compounds to inhibit the growth of the transplanted P388 murine leukemia cell line in male and female CD2Fl mice. Each test included a group of six or seven mice. The test is described in detail in Cancer Chemotherapy Reports, Part 3, Volume 3, pp 1-85 (1972).
The tumor cell line is transplanted into the test animals by intraperitoneal injection of ascites fluid containing the cell line. […]
A compound is designated "toxic" if, at a given dose, no animal survives after four days following first injection of the test compound. A ratio of survival time for treated animals (T) animals relative to control (C) animals is calculated for each nontoxic dose. A criterion for efficacy is a ratio of (T/C)×100 equal to or greater than 125.

The test system of series [3] is tumors, including small-cell carcinoma of the lung, acute leukemia, malignant lymphoma, and testicular cancer. The conditions noted are these: background art; cited from earlier work.
Series [4] concerns L1210 murine leukemia cell line. Briefly: In vitro antineoplastic test, L1210 leukemia (MTT, 3 days). The class given is cell-based. The following applies: Mus musculus, read-out: L1210 Leukemia In Vitro Mean IC50. How it is done:
as §1
In Vitro Antineoplastic Test Protocol
The activities of compounds of the present invention are tested against the L1210 murine leukemia cell line in vitro.
[…] cells are grown in RPMI 1640 culture medium containing 10% fetal bovine serum and gentamicin (50 micrograms per milliliter). A stock solution of the test compound is prepared in the appropriate solvent and further diluted in culture medium. Sequential twofold dilutions of drug are performed with 50 microliter transfers in 96-well microliter plates followed by the addition of 50 microliters of cell suspension containing 4×10^4 cells per milliliter.
After incubation at 37° C. in a humidified atmosphere of 5% CO2 in air for three days, 10 microliters of MTT [5 milligrams/milliliter 3-(4,5-dimethyl-2-thiazol)-2,5-diphenyltetrazolium bromide]are added to each well and the plates incubated at 37° C. for 3 hours before the addition of 100 microliters of 0.15 N HCl in isopropanol. Absorbance is read within one hour on a Dynatech MR 600 plate reader at 2 test wavelength of 570 nm and a reference wavelength of 630 nm. A microcomputer program converts optical density readings to percent growth and determines IC50 values (the amount of drug required to reduce absorbance to 50% of untreated controls) using nonlinear regression analysis.

The mark [5] stands for this setting: Mus musculus, P388, ip, 120 h, read-out: P388 Leukemia % T/C (survival time treated/control x 100).

Like-named read-outs stand apart in the source and are kept apart here.

With `COc1cc([C@@H]2c3cc4c(cc3[C@@H](O[C@@H]3O[C@@H]5CO[C@@H](C)O[C@H]5[C@H](O)[C@H]3O)[C@H]3COC(=O)[C@H]23)OCO4)cc(OC)c1O` [Etoposide, etoposide, reference compound], the “toxicity (in words)” value in series [1] is listed as “reduced toxicity”. In addition, the response vs control in vivo at 40 mg/kg in series [2] (Mus musculus, P388, read-out: P388 Leukemia % T/C (survival time treated/control x 100)) was determined as 295%. Also, the 60-days survivors in series [2] (P388, 40 mg/kg/inj, once daily on Days 1, 5, and 9) was 4/10. Also, the “antineoplastic activity (in words)” value in series [3] is “exhibited antineoplastic activity against certain tumors, including small-cell carcinoma of the lung, acute leukemia, malignant lymphoma, and testicular cancer”.
Turning to `COc1cc([C@@H]2c3cc4c(cc3[C@@H](OCCN(C)CCO)[C@H]3COC(=O)[C@H]23)OCO4)cc(OC)c1O` [Example 2], in series [2] (setting [5]), the response vs control in vivo at 0.38 mg/kg was 170%. Also, the IC50 in series [4] (L1210, 72 h) came out at 103 nM.
`COc1cc([C@@H]2c3cc4c(cc3[C@@H](OCCN3CCOCC3)[C@H]3COC(=O)[C@H]23)OCO4)cc(OC)c1O` [Example 3, [5R-(5α,5aβ,8aα,9β)]-5,8,8a,9-tetrahydro-5-(4-hydroxy-3,5-dimethoxyphenyl)-9-[2-(4morpholinyl)ethoxy]furo[3',4':6,7]naphtho[2,3-d]-1,3-dioxol-6(5aH)-one]: the response vs control in vivo at 3.1 mg/kg in series [2] (setting [5]) came to 179%. Besides, the IC50 in series [4] (L1210, 72 h) is 235 nM.
`COc1cc([C@@H]2c3cc4c(cc3[C@@H](OCCN(CCO)CCO)[C@H]3COC(=O)[C@H]23)OCO4)cc(OC)c1O` [Example 4]: in series [2] (setting [5]), the response vs control in vivo at 1.5 mg/kg was determined as 160%. Besides, the IC50 in series [4] (L1210, 72 h) came to 336 nM.
With `CCN(CC)CCO[C@@H]1c2cc3c(cc2[C@@H](c2cc(OC)c(O)c(OC)c2)[C@H]2C(=O)OC[C@@H]21)OCO3` [Example 5, [5R-(5α,5aβ,8aα,9β)]-9-[2-(diethylamino)ethoxy]-5,8,8a,9-tetrahydro-5-(4-hydroxy-3,5-dimethoxyphenyl)furo[3',4':6,7]naphtho[2,3-d]-1,3-dioxol-6(5aH)-one], in series [2] (setting [5]), the response vs control in vivo at 3.1 mg/kg is 140%. Besides, the IC50 in series [4] (L1210, 72 h) came to 198 nM.
For `CCN(CC)CCCO[C@@H]1c2cc3c(cc2[C@@H](c2cc(OC)c(O)c(OC)c2)[C@H]2C(=O)OC[C@@H]21)OCO3` [Example 6, [5R-(5α,5aβ,8aα,9β)]-9-3-[(diethylamino)propoxy]-5,8,8a,9-tetrahydro-5-(4-hydroxy-3,5-dimethoxyphenyl)furo[3',4':6,7]naphtho[2,3-d]-1,3-dioxol-6(5aH)-one], the response vs control in vivo at 2 mg/kg in series [2] (setting [5]) turned out to be 137%. Moreover, the IC50 in series [4] (L1210, 72 h) was determined as 250 nM.
For `CCN(CC)CCOCCO[C@@H]1c2cc3c(cc2[C@@H](c2cc(OC)c(O)c(OC)c2)[C@H]2C(=O)OC[C@@H]21)OCO3` [Example 7, [5R-(5α,5aβ,8aα,9β)]-9-[2-[2-(diethyl-amino)ethoxy]ethoxy]-5,8,8a,9-tetrahydro-5-(4-hydroxy-3,5-dimethoxyphenyl)furo[3',4':6,7]naphtho[2,3-d]-1,3-dioxol-6(5aH)-one], the response vs control in vivo at 50 mg/kg in series [2] (setting [5]) turned out to be 170%. Also, the IC50 in series [4] (L1210, 72 h) is 253 nM.
With `COc1cc([C@@H]2c3cc4c(cc3[C@@H](OCCN3CCCC3=O)[C@H]3COC(=O)[C@H]23)OCO4)cc(OC)c1O` [Example 8, [5S-(5α,5aβ,8aα,9β)]-1-[2-[[5,5a,6,8,8a,9-hexahydro-9-(4-hydroxy-3,5-dimethoxyphenyl)-8-oxofuro-[3',4':6,7]naphtho[2,3-d]-1,3-dioxol-5-yl]oxy]ethyl]-2-pyrrolidinone], the response vs control in vivo at 100 mg/kg in series [2] (setting [5]) is 167%. Besides, in series [4] (L1210, 72 h), the IC50 is 500 nM.
On to `COc1cc([C@@H]2c3cc4c(cc3[C@@H](SCCN3CCOCC3)[C@H]3COC(=O)[C@H]23)OCO4)cc(OC)c1O` [Example 9, [5R-(5α,5aβ,8aα,9β)]-5,8,8a,9-tetrahydro-5-(4-hydroxy-3,5-methoxyphenyl)-9-[[2-(4-morpholinyl)ethyl]thio]furo[3',4':6,7]naphtho[2,3-d]1,3-dioxol-6(5aH)-one], for which, in series [2] (setting [5]), the response vs control in vivo at 50 mg/kg is 127%. For the same molecule, the IC50 in series [4] (L1210, 72 h) amounted to 1390 nM.
Regarding `COc1cc([C@@H]2c3cc4c(cc3[C@@H](SCC(O)CO)[C@H]3COC(=O)[C@H]23)OCO4)cc(OC)c1O` (stereo partly drawn) [Example 10], the response vs control in vivo at 12.5 mg/kg in series [2] (setting [5]) came out at 114%. Besides, in series [4] (72 h, L1210 cells, 3 days at 37° C., MTT), the IC50 came to 767 nM.
`COc1cc([C@@H]2c3cc4c(cc3[C@@H](S[C@@H]3O[C@@H]5COC(C)O[C@H]5[C@H](O)[C@H]3O)[C@H]3COC(=O)[C@H]23)OCO4)cc(OC)c1O` (stereo partly drawn) [Example 11, (5α,5aα,8aα,9β)-9-[(4,6-O-ethylidene-β-D-glucopyranosyl)thio]-5,8,8a,9-tetrahydro-5-(4-hydroxy-3,5-dimethoxyphenyl)furo[3',4':6,7]naphtho[2,3-d]-1,3-dioxol-6(5aH)-one]: in series [2] (setting [5]), the response vs control in vivo at 50 mg/kg stood at 182%. For the same molecule, in series [2] (P388, 50 mg/kg/inj, intraperitoneal once daily for five days), the 40-day survivors was 3/6. In addition, in series [2] (conclusion from the table (L1210 and P388)), the “antitumor activity (in words)” value was “highly active”. The IC50 in series [4] (L1210, 72 h) came out at 305 nM.
`COc1cc([C@@H]2c3cc4c(cc3[C@H](O)[C@H]3COC(=O)[C@H]23)OCO4)cc(OC)c1OC` [podophyllotoxin]: in series [1], the “toxicity (in words)” value is listed as “extremely toxic”. The “antineoplastic activity (in words)” value in series [3] is “well documented”.
Turning to `COc1cc([C@@H]2c3cc4c(cc3[C@@H](O[C@@H]3O[C@@H]5CO[C@@H](c6cccs6)O[C@H]5[C@H](O)[C@H]3O)[C@H]3COC(=O)[C@H]23)OCO4)cc(OC)c1O` [teniposide], the “toxicity (in words)” value in series [1] was “reduced toxicity”. In series [3], the “antineoplastic activity (in words)” value is “exhibited antineoplastic activity against certain tumors, including small-cell carcinoma of the lung, acute leukemia, malignant lymphoma, and testicular cancer”.

(Values after patent US5061791A, “4-bromo-4'-demethylepipodophyllotoxin derivatives” (Warner-Lambert Company, priority 1989, dated 1991).)
